Measured values: ChEMBL document CHEMBL1201862, “PubChem BioAssay data set” (2004)
The source made the active and inactive calls.

What was measured:
[1] = cytotoxicity toward NIH3T3 fibroblasts, dose response, counter-screen, cell-based, ATP luminescence, mouse fibroblasts (AID 2010); format: functional;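 also: cells exposed to compound for about 90 hours before reading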
[2] = inhibitors of intracellular T. cruzi replication, confirmation, NIH3T3 host cells, beta-gal luminescence (AID 2044); format: functional, cell-based;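 also: intracellular parasites grown in NIH/3T3 mouse fibroblasts as host cells; luminescent beta-galactosidase reporter signal from transgenic T. cruzi replicating inside host cells; inhibitors lower the luminescence signal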
Cytochrome P450 2C9 = Cytochrome P450 2C9 (Homo sapiens, UniProt P11712)
Sequence of Cytochrome P450 2C9 (P11712 whole entry): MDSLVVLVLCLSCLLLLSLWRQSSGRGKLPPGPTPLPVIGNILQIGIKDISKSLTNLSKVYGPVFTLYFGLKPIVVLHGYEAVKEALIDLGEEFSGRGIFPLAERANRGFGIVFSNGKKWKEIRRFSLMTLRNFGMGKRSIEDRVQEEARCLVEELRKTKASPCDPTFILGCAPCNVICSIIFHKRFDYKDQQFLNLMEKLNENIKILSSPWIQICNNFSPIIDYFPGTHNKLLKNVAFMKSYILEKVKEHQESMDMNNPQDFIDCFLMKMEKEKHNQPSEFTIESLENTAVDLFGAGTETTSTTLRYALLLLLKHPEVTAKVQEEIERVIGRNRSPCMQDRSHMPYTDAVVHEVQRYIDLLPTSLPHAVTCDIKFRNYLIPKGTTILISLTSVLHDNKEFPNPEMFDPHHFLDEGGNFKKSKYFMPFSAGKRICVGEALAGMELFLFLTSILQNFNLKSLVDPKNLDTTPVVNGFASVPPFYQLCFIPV

H9c2 = test: cells; format: functional, cell-based; conditions: Rattus norvegicus, H9c2, Myocardium
Cytochrome P450 1A2 = biological target: T1, Cytochrome P450 1A2 (Homo sapiens, UniProt P05177);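 also: PubChem cytochrome P450 panel assay, CYP1A2 panel member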
T1 sequence (P05177 whole entry): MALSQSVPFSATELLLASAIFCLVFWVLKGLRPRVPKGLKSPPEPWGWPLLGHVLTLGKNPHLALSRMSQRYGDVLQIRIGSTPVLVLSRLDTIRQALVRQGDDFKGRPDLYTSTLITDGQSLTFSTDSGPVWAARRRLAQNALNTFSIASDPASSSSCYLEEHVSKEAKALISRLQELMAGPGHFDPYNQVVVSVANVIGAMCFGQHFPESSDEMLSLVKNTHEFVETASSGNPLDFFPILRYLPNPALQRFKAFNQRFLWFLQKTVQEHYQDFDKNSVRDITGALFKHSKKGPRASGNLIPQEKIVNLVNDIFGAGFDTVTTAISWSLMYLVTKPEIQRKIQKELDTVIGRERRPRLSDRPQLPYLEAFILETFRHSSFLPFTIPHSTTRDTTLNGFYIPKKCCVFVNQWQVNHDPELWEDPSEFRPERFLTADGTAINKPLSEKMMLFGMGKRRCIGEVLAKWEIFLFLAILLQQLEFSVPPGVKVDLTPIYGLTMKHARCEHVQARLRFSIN

Cytochrome P450 2C19 = Cytochrome P450 2C19 (Homo sapiens, UniProt P33261); test: Cytochrome panel assay with activity outcomes. Panel member name: p450-cyp2c19 Compounds with AC50 equal or less than 10 uM are considered active; format: functional
Sequence of Cytochrome P450 2C19 (P33261 whole entry): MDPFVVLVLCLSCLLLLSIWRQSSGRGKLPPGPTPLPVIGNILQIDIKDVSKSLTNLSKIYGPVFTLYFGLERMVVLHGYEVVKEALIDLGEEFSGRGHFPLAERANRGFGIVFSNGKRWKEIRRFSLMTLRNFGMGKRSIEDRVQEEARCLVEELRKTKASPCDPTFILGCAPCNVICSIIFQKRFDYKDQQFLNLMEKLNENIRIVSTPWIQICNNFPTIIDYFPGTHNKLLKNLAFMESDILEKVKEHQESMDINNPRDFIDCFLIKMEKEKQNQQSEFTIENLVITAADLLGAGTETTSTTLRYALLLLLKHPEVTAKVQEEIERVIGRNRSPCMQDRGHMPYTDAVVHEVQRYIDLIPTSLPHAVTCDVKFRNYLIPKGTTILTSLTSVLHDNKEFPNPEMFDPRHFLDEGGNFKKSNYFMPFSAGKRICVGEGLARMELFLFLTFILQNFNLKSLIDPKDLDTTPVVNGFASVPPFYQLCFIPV
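For IC50 in this document: confirmatory concentration-response retest of ultra-high-throughput screening hits for modulation of myocardial damage; cell death induced by hydrogen peroxide oxidative stress; compound pretreatment for 60 min then peroxide exposure for 2 h; potency is for protecting the cells against peroxide damage rather than for killing them.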

## O=[N+]([O-])c1ccccc1/C=N/N1CCN(c2ccncc2S(=O)(=O)N2CCCCC2)CC1
[1]
  EC50: > 60 µM (not active)
[2]
  EC50: 550 nM (active)

## COc1cc(CNC(C)(C)CO)ccc1OCC(=O)Nc1ccc(Br)cc1
Cytochrome P450 2C9
  AC50: 39.8 µM (inconclusive)

## COc1ccc(CNn2c(-c3cccs3)nc3ccccc3c2=O)cc1OC
H9c2
  IC50: 8.92 µM (active)

## CC1=C2[C@@H]3OC(=O)[C@@H](C)[C@@H]3CC[C@]2(C)C=CC1=O
Cytochrome P450 1A2
  AC50: 10 µM (inconclusive)

## COC(=O)[C@@]1(Cc2ccc(F)cc2)[C@H]2c3cc(C(=O)N4CCCC4)n(CCc4ccc(O)c(O)c4)c3C[C@H]2CN1C(=O)c1ccccc1
Cytochrome P450 1A2
  AC50: 20 µM (inconclusive)

## COC(=O)c1nnn(Cc2ccccc2)c1N
Cytochrome P450 1A2
  AC50: 0.126 µM (inconclusive)

## COc1ccc(-c2csc(NC(=O)CCCc3nc(O)c4ccccc4n3)n2)cc1OC
H9c2
  IC50: > 79 µM (inactive)

## O=C1Nc2ccccc2Oc2cc([N+](=O)[O-])ccc21
[1]
  EC50: 9.78 µM (active)
[2]
  EC50: 1460 nM (active)

## CCOC(=O)c1cnc2ccc(OCC)cc2c1N1CCN(c2ccccc2OC)CC1
[1]
  EC50: > 60 µM (not active)
[2]
  EC50: 1190 nM (active)

## OC(COc1ccc(OCC(O)CN2CCN(Cc3ccccc3)CC2)cc1)CN1CCN(Cc2ccccc2)CC1 (stereo not given)
[1]
  EC50: > 60 µM (not active)
[2]
  EC50: 789 nM (active)

## O=C(Nc1ccccc1C(=O)O)c1ccc2ccccc2n1
Cytochrome P450 1A2
  AC50: 5.01 µM (inconclusive)

## COc1ccccc1NC(=O)CSc1nc2ccccc2cc1Cc1ccccc1
Cytochrome P450 2C9
  AC50: 0.0631 µM (inconclusive)
Cytochrome P450 1A2
  AC50: 3.55 µM (inconclusive)

## COC(=O)c1ccc(C#CC(NP(=O)(c2ccccc2)c2ccccc2)c2ccccc2)cc1 (stereo not given)
Cytochrome P450 1A2
  AC50: 20 µM (inconclusive)
Cytochrome P450 2C19; read-out: AC50
  AC50: 20 µM (inconclusive)

## CN(C)CCCNC(=O)c1ccc(Cl)c(S(=O)(=O)N(C)c2ccccc2)c1
[1]
  EC50: > 60 µM (not active)
[2]
  EC50: 524 nM (active)

## O=C(CNC(=O)c1cccc(F)c1)N/N=C/c1cc(Br)ccc1OC(=O)/C=C/c1ccco1
H9c2
  IC50: > 79 µM (inactive)

## CCN(CC)CCN(C(=O)c1ccc2c(c1)OCCO2)c1nc2ccc(C)cc2s1
[1]
  EC50: > 60 µM (not active)
[2]
  EC50: 457 nM (active)

## O=C(Cn1ccnc1[N+](=O)[O-])NCCO [ETANIDAZOLE]
Cytochrome P450 2C19
  AC50: inconclusive

## O=C(CN1C(=O)COc2ccccc21)N(Cc1cccnc1)Cc1ccccc1F
[1]
  EC50: > 60 µM (not active)
[2]
  EC50: 260 nM (active)

## COc1ccccc1NC(=O)c1ccc(NC(=O)Cc2nnc(O)c3ccccc23)cc1
H9c2
  IC50: > 79 µM (inactive)

## O=C(NCc1cccnc1)C1COc2ccccc2O1 (stereo not given)
Cytochrome P450 2C9
  AC50: 20 µM (inconclusive)

## O=C(CSc1nc(O)c2ccccc2n1)c1ccccc1
H9c2
  IC50: > 79 µM (inactive)

## COc1ccc(CNc2ncnc3ccc(-c4ccccc4C#N)cc23)c(OC)c1
Cytochrome P450 2C9
  AC50: 0.794 µM (inconclusive)

## CC(=O)c1ccccc1OCCCN1CCCCC1
H9c2
  IC50: > 79 µM (inactive)

## CCN1CCN(Cc2cccc(Oc3ccccc3)c2)CC1
[1]
  EC50: > 30 µM (not active)
[2]
  EC50: 1440 nM (active)

## COc1cc(-c2nnc(-c3cc(-c4ccccc4)nc4ccccc34)o2)cc(OC)c1OC
H9c2
  IC50: 10.5 µM (active)

## O=C(c1ccc(-c2ccccc2)cc1)C1CCCN(Cc2ccncc2)C1 (stereo not given)
[1]
  EC50: > 60 µM (not active)
[2]
  EC50: 1470 nM (active)

## O=C(c1c[nH]c(=O)n(-c2ccccc2)c1=O)N1CCc2ccccc21
Cytochrome P450 1A2
  AC50: 0.0794 µM (inconclusive)
Cytochrome P450 2C19; read-out: AC50
  AC50: 6.31 µM (inconclusive)

## COc1ccc(-n2nc(C(=O)NCC(=O)Nc3cc(OC)c(OC)c(OC)c3)c3ccccc3c2=O)cc1Cl
H9c2
  IC50: > 79 µM (inactive)

## CN(C)CCC=C1c2ccccc2CCc2ccccc21 [AMITRIPTYLINE]
Cytochrome P450 1A2
  AC50: 15.8 µM (inconclusive)

## CCN(C(=O)c1cc2c(O)nc3ccc(C)cc3c2s1)c1ccccc1C
[1]
  EC50: > 60 µM (not active)
[2]
  EC50: 857 nM (active)

## CN(C)CCCN/C=C1/C(=O)N(Cc2ccc3c(c2)OCO3)C(=O)c2ccccc21
[1]
  EC50: 10.1 µM (active)
[2]
  EC50: < 100 nM (active)

## CN(CC(=O)Nc1ccccc1Cl)C(=O)CCc1nc(O)c2ccccc2n1
H9c2
  IC50: 23.8 µM (active)

## Cc1ccc(-c2nnc(Nc3ccc(CC(N)=O)cc3)c3ccccc23)cc1
[1]
  EC50: > 60 µM (not active)
[2]
  EC50: 208 nM (active)

## N=c1sccn1CC(=O)Nc1cccc(Oc2ccccc2)c1
Cytochrome P450 2C9
  AC50: 20 µM (inconclusive)
Cytochrome P450 1A2
  AC50: 6.31 µM (inconclusive)

## COc1ccc(-c2cc(C3CCN(Cc4ccc([N+](=O)[O-])cc4)CC3)[nH]n2)cc1
[1]
  EC50: > 60 µM (not active)
[2]
  EC50: 1100 nM (active)

## COc1cc(/C=N\NC(=O)c2cccnc2)ccc1OC(=O)c1ccccc1Cl
H9c2
  IC50: > 79 µM (inactive)

## CCNc1ncc2nc(-c3ccc(F)cc3)c(=O)n(Cc3ccc(F)cc3)c2n1
Cytochrome P450 1A2
  AC50: 20 µM (inconclusive)

## CCCC(=O)Nc1cccc(Oc2nc(C)cc(C)c2C#N)c1
Cytochrome P450 2C9
  AC50: 10 µM (inconclusive)

## COc1cccc(C(CC(=O)Nc2cccc3ccccc23)NC(=O)c2ccccc2)c1 (stereo not given)
Cytochrome P450 2C19; read-out: AC50
  AC50: 0.631 µM (inconclusive)

## CC(=O)O/C(=C1/C[C@H]2[C@@H]3CC=C4C[C@@H](OC(C)=O)CC[C@]4(C)[C@@H]3CC[C@]2(C)C1=O)C(F)(F)F
Cytochrome P450 2C9
  AC50: 3.16 µM (inconclusive)
Cytochrome P450 1A2
  AC50: 5.01 µM (inconclusive)

## CC(=O)NCCNc1cc(-c2ccccc2C(F)(F)F)ncn1
Cytochrome P450 1A2
  AC50: 25.1 µM (inconclusive)

## CC(C)CN(C(=O)c1ccc([N+](=O)[O-])s1)c1c(N)n(Cc2ccccc2)c(=O)[nH]c1=O
[1]
  EC50: > 60 µM (not active)
[2]
  EC50: 783 nM (active)

## CC(=O)Nc1ccc(-c2cc(-c3ccc(NC(C)=O)cc3)nc(-c3ccccc3)n2)cc1
Cytochrome P450 2C19; read-out: AC50
  AC50: 1.78 µM (inconclusive)

## Cn1cc(-c2nc3cncnc3n(CCN)c2=O)c2ccccc21
Cytochrome P450 2C9
  AC50: 15.8 µM (inconclusive)
Cytochrome P450 2C19; read-out: AC50
  AC50: 31.6 µM (inconclusive)

## COc1ccc(-c2cc(-c3nnc(COC(=O)C4CC4C)o3)c3ccccc3n2)cc1OC (stereo not given)
H9c2
  IC50: 8.29 µM (active)

## O=c1oc2c(CN3CCOCC3)c(O)ccc2c2ccccc12
Cytochrome P450 2C9
  AC50: 20 µM (inconclusive)

## N#Cc1cc2ccccc2nc1SCC(=O)Nc1ccc(S(=O)(=O)N2CCCC2)cc1
[1]
  EC50: 9.37 µM (active)
[2]
  EC50: 2830 nM (active)

## NS(=O)(=O)c1ccc(NC(=O)Nc2cccc3ccccc23)cc1
Cytochrome P450 1A2
  AC50: 1 µM (inconclusive)

## O=C(C1=C[C@H](C2CC2)C[C@H](OCc2ccc(CO)cc2)O1)N1CCN(Cc2ccccc2)CC1
[1]
  EC50: > 60 µM (not active)
[2]
  EC50: 541 nM (active)

## COC(=O)Cn1nc(-c2ccccc2)n(-c2ccccc2)c1=S
Cytochrome P450 2C19; read-out: AC50
  AC50: 20 µM (inconclusive)

## CCCCCNc1nc(-c2ccccc2)nc(-n2ccnc2)n1
[1]
  EC50: > 60 µM (inconclusive)
[2]
  EC50: 1550 nM (active)

## COC(=O)c1c(-c2ccccc2)csc1NC(=O)CSc1ncnc2sc(C)c(C)c12
Cytochrome P450 2C19; read-out: AC50
  AC50: 1 µM (inconclusive)

## CCc1ccc(C(=O)COC(=O)C(Cc2ccccc2)NC(=O)C2CCC(C)CC2)cc1 (stereo not given)
Cytochrome P450 2C19; read-out: AC50
  AC50: 0.0708 µM (inconclusive)

## COC(=O)c1sccc1NC(=O)CN(C)NS(=O)(=O)c1ccc(F)cc1
Cytochrome P450 2C9
  AC50: 28.2 µM (inconclusive)

## CCCCOc1ccc(-c2nnn(CC(=O)c3c[nH]c4ccccc34)n2)cc1
Cytochrome P450 2C19; read-out: AC50
  AC50: 25.1 µM (inconclusive)

## Cc1[nH]n(-c2ccc(S(=O)(=O)O)cc2)c(=O)c1/N=N\c1ccccc1
Cytochrome P450 2C19
  AC50: inconclusive

## CS(=O)(=O)Nc1ccc([N+](=O)[O-])cc1Oc1ccccc1 [NIMESULIDE]
Cytochrome P450 1A2
  AC50: 12.6 µM (inconclusive)
